In US20080241870A1, “Composition For Creating an Artificial Bone Marrow Like Environment and Use Thereof” (NATIONAL CENTRE FOR CELL SCINECES, priority 2005, published 2008):

Columns and labels:
Assay type in all cases: cell-based, human
[1] = system: mesenchyme cells; assay: SDF-1α release / in vitro homing of CD34+ SPC (conditioned medium of treated mesenchyme cells); details: 10 ngml^-1, 4 hours treatment, conditioned medium after 18 hours; vs untreated reference
Protocol: 5×10^5 mesenchyme cells were grown on a 35 mm diameter Petri dish (Becton Dickinson, USA) in IMDM containing 20% serum. After the cells were confluent, the medium was removed, the cells were washed 2× with Phosphate buffered saline (GIBCO-BRL) (PBS) and the medium was changed to treatment medium containing 10 ngml^−1 of TGFβ1 and the dishes were returned to standard cell culture environment at 37° C. in 5% CO2. After 4 hours, the treatment medium was removed, the cells were washed with PBS and were covered with 1 ml of IMDM containing 0.5% serum and incubation at 37° C. in 5% CO2 was continued. After 18 hours, the conditioned medium was collected and was assayed for its ability to support in vitro homing of CD34^+ SPC. In another parallel experiment, an equal number of mesenchymal cells were employed, where TGF-β1 was not used and the conditioned medium obtained from this experiment was used as a reference for comparison. […] As shown in FIGS. 6(a-b) untreated mesenchymal cells show no or marginal homing as compared to mesenchymal cells treated with TGF-β1. The homing could be modulated in this case either by adding suitable amounts of a neutralizing antibody to SDF-1α or to its receptor CXCR-4 to neutralize its effects on chemo-attraction of SPC or by destroying the gradient by exogenous addition of SDF1α indicating the specificity of the process.

[2] = system: CD34+ SPC; assay: lineage commitment: HCFA with CD34+ SPC, count of mature blood cells after 14 days; details: 10 ngml^-1, 18 hours; HCFA 14 days; FIG. 8a
Protocol: The mesenchyme cells (5×10^4 cells per well in a 24 well dish) were grown in IMDM plus 20% fetal bovine serum until they were nearly confluent. The medium was removed and was washed 2× with PBS. Two different ABME were prepared by using two biological hematomodulators (TGFβ1 10 ngml^−1, bFGF 10 ngml^−1, 18 hours) separately. The ABME formed was washed 2× with PBS and was covered with 0.2 ml of a suspension of CD34^+ SPC cells (10^5 ml−1) for 1 hour at 37° C. All the cells of the dish were then harvested after washing and were used in a HCFA. After 14 days, the mature blood cells formed were harvested and an aliquot of the suspension was examined under the microscope to identify and count the mature lymphoid and myeloid cells.
The mesenchyme cells (5×10^4 cells per well in a 24 well dish) were grown in IMDM plus 20% fetal bovine serum until they were nearly confluent. The medium was removed and was washed 2× with PBS. The cells in one well were treated with a DiBromo derivative of the Calcium ion chelator BAPTA (5 micromolar) for one hour whereas another well received only the medium without the BAPTA derivative. After 1 hour of incubation at 37° C., TGFβ1 was added to both the wells (10 ng ml−1) and the incubation was continued for a further period of 18 hours. The ABME formed in both wells were washed and were used for HCFA using CD34^+ SPC. After 14 days the mature blood cells were harvested and were quantitated for the cells of erythroid and myeloid lineage.

[3] = system: MNC; assay: self renewal: GEMM colony formation of MNC mixed with doses of ABME cells
Protocol: The mesenchyme cells were grown in IMDM plus 20% fetal bovine serum until they were nearly confluent. The medium was removed and was washed 2× with PBS. ABME was prepared by using a biological hematomodulator namely, TGF beta 1(20 ng ml−1).The ABME formed was washed 2× with PBS and the cells were dissociated with a non-enzymatic solution (Sigma). A fixed number of MNC namely 2×10^5 were mixed with various doses of dissociated mesenchymal cells (2×10^4, 5×10^4 and 1×10^5) and incubated for 1 hour. At the end of the incubation, cells were processed for hematopoietic colony formation assays (HCFA). […] Secondly the lowest concentration of cells from ABME (2×10^4) was more efficient in the stimulation of GEMM formation than the highest concentration (1×10^5) of mesenchymal cells indicating a nearly 10 fold increase in the efficiency.

Substance: HumanTransforming Growth Factor beta1 [TGFβ1]
- SDF-1α release from mesenchymal cells [1]: significantly more amounts of SDF-1α was released
- mature lymphoid and myeloid cells formed [2]: supported more myeloid cell formation
- GEMM colony formation ([3]; 20 ng ml-1, 2×10^5 MNC with 2×10^4, 5×10^4, 1×10^5 ABME cells vs control mesenchymal cells, FIG. 10a): clear dose dependent increase in GEMM colony formation
- increase in efficiency of GEMM stimulation ([3]; 2×10^4 ABME cells vs 1×10^5 mesenchymal cells): ~10 fold
